Data reported in EP4711368A1 (priority 2023, dated 2024).
Read-outs that look alike come from different tables or passages of the source.

Assays:
[1] = test system: SD rats; assay: animal or person; type: in vivo; settings: iv; for Minimal effective analgesic dose / Minimal effective anesthetic dose / Onset time / Righting feflex duration / Sedation Duration: rat, in vivo; for minimal effective dose: Rattus norvegicus
[2] = test system: SD rats; settings: rat, in vivo; for MLD: iv
[3] = read-out: Minimal effective analgesic dose
[4] = read-out: Minimal effective anesthetic dose

| SMILES | Minimal effective analgesic dose [1] [mg/kg] | Minimal effective anesthetic dose [1] [mg/kg] | Onset time [1] [min] | Righting feflex duration [1] [min] | Sedation Duration [1] [min] | TI [2] | MLD [2] [mg/kg] | minimal effective dose [1, 3] [mg/kg] | minimal effective dose [1, 4] [mg/kg] | TI ([2]; SD) | MLD ([2]; SD) [mg/kg] |
| --- | --- | --- | --- | --- | --- | --- | --- | --- | --- | --- | --- |
| CC(=O)OCCC1N=C(c2ccccn2)c2cc(Br)ccc2-n2c(C)cnc21 (centres unmarked) [Compound 145] | 20 | 5.0 | 0.2 to 0.4 | 0.5 to 14.3 | 33.1 to 88.2 | 6.0 | 30 | – | – | – | – |
| Cc1cnc2n1-c1ccc(Br)cc1C(c1ccccn1)=NC2CCOC(=O)C(C)C (centres unmarked) [Compound 146] | – | 1.0 | 0.3 to 0.6 | 3.7 to 9.7 | 17.3 to 27.1 | 5.0 | 5 | – | – | – | – |
| CCC(=O)OCCC1N=C(c2ccccn2)c2cc(Br)ccc2-n2c(C)cnc21 (centres unmarked) [Compound 147] | – | 2.5 | 0.2 to 0.5 | – | 27.0 to 48.7 | 6.0 | 15 | – | – | – | – |
| Cc1cnc2n1-c1ccc(Br)cc1C(c1ccccn1)=NC2CCOC(=O)CCl (centres unmarked) [Compound 148] | – | 1.8 | 0.2 to 1.1 | 1.0 to 60.8 | 20.1 to 82.4 | 33.3 | 60 | – | – | – | – |
| Cc1cnc2n1-c1ccc(Br)cc1C(c1ccccn1)=NC2CCOC(=O)CCCl (centres unmarked) [Compound 150] | – | 2.5 | 0.2 to 0.4 | 0.8 to 13.5 | 16.9 to 33.9 | 5.5 | 13.7 | – | – | – | – |
| C=CC(=O)OCCC1N=C(c2ccccn2)c2cc(Br)ccc2-n2c(C)cnc21 (centres unmarked) [Compound 151] | – | 1.8 | 0.2 to 3.4 | 3.7 to 38.6 | 19.0 to 68.4 | 16.3 | 29.4 | – | – | – | – |
| Cc1cnc2n1-c1ccc(Br)cc1C(c1ccccn1)=NC2CCOC(=O)C1COC1 (centres unmarked) [Compound 153] | – | 7.5 | 0.3 to 0.4 | 2.9 to 5.8 | 20.0 to 21.9 | 2.7 | 20 | – | – | – | – |
| CCOC(=O)OCCC1N=C(c2ccccn2)c2cc(Br)ccc2-n2c(C)cnc21 (centres unmarked) [Compound 154] | – | 3.8 | 0.5 to 0.9 | 1.3 to 6.2 | 14.1 to 17.0 | 2.0 | 7.5 | – | – | – | – |
| Cc1cnc2n1-c1ccc(Br)cc1C(c1ccccn1)=NC2CCOC(=O)N(C)C.O=S(=O)(O)c1ccccc1 (centres unmarked) [Compound 156D] | – | 5.0 | 0.2 to 0.6 | 0.6 to 10.9 | 12.8 to 36.9 | >1.5 | >7.5 | – | – | – | – |
| Cc1cnc2n1-c1ccc(Br)cc1C(c1ccccn1)=NC2CCOC(=O)N(C)C (centres unmarked) [Compound 156] | – | 1.8 | 0.2 to 0.4 | 1.7 to 31.9 | 9.3 to 91.5 | 11.1 | 20 | – | – | – | – |
| CC(=O)OC1N=C(c2ccccn2)c2cc(Br)ccc2N(C)C1=O (centres unmarked) [Compound 164] | – | 5.0 | 0.2 to 1.0 | 1.2 to 50.4 | 116.7 to 284.0 | 8.0 | 40 | – | – | – | – |
| CC(C)OC(=O)OC1N=C(c2ccccn2)c2cc(Br)ccc2N(C)C1=O (centres unmarked) [Compound 166] | 20 | 20.0 | 0.4 | 20.7 | 64.0 | 2.0 | 38.9 | – | – | – | – |
| CC(C)OC(=O)CCC1N=C(c2ccccn2)c2cc3nc(C(F)(F)F)sc3cc2N(C)C1=O (centres unmarked) [Compound 181] | 40 | 40.0 | 0.8 | 7.8 | 53.0 | >1.0 | >40 | – | – | – | – |
| Cc1cnc2n1-c1ccc(Br)cc1C(c1ccccn1)=NC2COC(=O)c1ccccc1 (centres unmarked) [Compound 191] | 20 | 5.0 | 0.45 to 0.53 | 0.7 to 12.8 | 53.5 to 155.3 | 6.8 | 34.0 | – | – | – | – |
| Cc1ccc(C(=O)OCC2N=C(c3ccccn3)c3cc(Br)ccc3-n3c(C)cnc32)cc1 (centres unmarked) [Compound 192] | – | 5.0 | 0.2 to 0.4 | 5.9 to 14.9 | 156.7 to 200.0 | 2.0 | 10.0 | – | – | – | – |
| Cc1cnc2n1-c1ccc(Br)cc1C(c1ccccn1)=NC2COS(=O)c1ccccc1 (centres unmarked) [Compound 195] | 21.8 | 7.5 | 0.2 to 0.5 | 5.3 to 76.6 | 78.5 to 195.4 | >2.9 | >21.8 | – | – | – | – |
| Cc1cnc2n1-c1ccc(Br)cc1C(c1ccccn1)=NC2COC(=O)CN(C)C (centres unmarked) [Compound 196] | – | 15 | 0.2 to 1.4 | 9.5 to 23.6 | 214.5 to 403.5 | 3.3 | 50 | – | – | – | – |
| CC(C)OC(=O)CN1N=C(c2ccccn2)c2cc(Br)ccc2N(C)C1=O [Compound 239] | – | – | 0.17 to 0.75 | 1.30 to 11.58 | 17.72 to 23.57 | – | – | 10 | 5 | 8 | 40 |
| CC(C)COC(=O)CN1N=C(c2ccccn2)c2cc(Br)ccc2N(C)C1=O [Compound 240] | – | – | 0.30 to 0.48 | 0.62 to 15.83 | 15.27 to 36.70 | – | – | 30 | 10 | 3 | 30 |
| CCC(C)OC(=O)CN1N=C(c2ccccn2)c2cc(Br)ccc2N(C)C1=O (centres unmarked) [Compound 241] | – | – | 0.43 to 0.90 | 3.47 to 30.13 | 18.10 to 73.95 | – | – | – | 7.5 | 4 | 30 |
| CC[C@H](C)OC(=O)CN1N=C(c2ccccn2)c2cc(Br)ccc2N(C)C1=O [Compound 242] | – | – | 0.28 to 0.55 | 5.05 to 18.42 | 19.98 to 46.92 | – | – | – | 7.5 | 4 | 30 |
| CC[C@@H](C)OC(=O)CN1N=C(c2ccccn2)c2cc(Br)ccc2N(C)C1=O [Compound 243] | – | – | 0.22 to 0.67 | 0.65 to 19.85 | 21.98 to 55.45 | – | – | – | 5 | 6 | 30 |
| CN1C(=O)N(CC(=O)OC2CC2)N=C(c2ccccn2)c2cc(Br)ccc21 [Compound 244] | – | – | 0.15 to 0.18 | 0.78 to 3.85 | 11.42 to 18.83 | – | – | – | 15 | 2.7 | 40 |
| CN1C(=O)N(CC(=O)OC2COC2)N=C(c2ccccn2)c2cc(Br)ccc21 [Compound 245] | – | – | 0.15 to 0.67 | 1.27 to 1.40 | 11.02 to 18.83 | – | – | 20 | 10 | 4 | 40 |
| CCC(CC)OC(=O)CN1N=C(c2ccccn2)c2cc(Br)ccc2N(C)C1=O [Compound 247] | – | – | 0.28 | 30.15 | 88.25 | – | – | 20 | 20 | 1.5 | 30 |
| C=CC(C)OC(=O)CN1N=C(c2ccccn2)c2cc(Br)ccc2N(C)C1=O (centres unmarked) [Compound 248] | – | – | 0.15 to 0.52 | 2.97 to 38.32 | 138.4 to 240 | – | – | 20 | 10 | 4 | 40 |
| CC(C)C(C)OC(=O)CN1N=C(c2ccccn2)c2cc(Br)ccc2N(C)C1=O (centres unmarked) [Compound 249] | – | – | 0.50 to 0.62 | 6.55 to 13.37 | 23.30 to 42.37 | – | – | 15 | 10 | 2 | 20 |
| CC(OC(=O)CN1N=C(c2ccccn2)c2cc(Br)ccc2N(C)C1=O)C1CC1 (centres unmarked) [Compound 250] | – | – | 0.53 | 13.62 | 21.55 | – | – | – | 20 | >1 | – |
| C#C[C@H](C)OC(=O)CN1N=C(c2ccccn2)c2cc(Br)ccc2N(C)C1=O [Compound 252] | – | – | 0.43 | 2.92 to 5.05 | 9.95 to 10.58 | – | – | 30 | 20 | 2 | 40 |
| CN1C(=O)N(CC(=O)OC2(C)COC2)N=C(c2ccccn2)c2cc(Br)ccc21 [Compound 253] | – | – | 0.87 to 0.88 | 1.38 to 11.07 | 10.13 to 31.28 | – | – | 20 | 10 | 3 | 30 |
